Experiment: Solubility of saccharides in water at 37° C.
Assay type: physicochemical
Conditions: value in parentheses under the saccharide name
Method: The solubility can be determined by a method well-known to those skilled in the art. For example, solubility (% by weight) can be determined as follows. A solute is dissolved gradually in water of weight W1 at 37° C. When the largest amount of the solute is dissolved in the water, the weight of the solution is W2. The weight of the dissolved solute W3 (=W2−W1) is divided by the weight of the solution W2, and multiplied by 100 (i.e., converted to a percentage).
With `OC[C@@H](O)[C@@H](O)[C@H](O)[C@H](O)CO` [Mannitol] the “Used Saccharide (Solubility at 37° C. (weight %))” value was “(23) weight %”. In the case of `OC[C@@H](O)[C@@H](O)[C@H](O)[C@@H](O)CO` [Sorbitol], the “Used Saccharide (Solubility at 37° C. (weight %))” value is reported as “(74) weight %”. For `OC[C@@H](O)[C@H](O)[C@@H](O)CO` [Xylitol], the “Used Saccharide (Solubility at 37° C. (weight %))” value was “(72) weight %”. With `OC[C@H]1O[C@H](OC[C@H]2OC(O)(CO)[C@@H](O)[C@@H]2O)[C@H](O)[C@@H](O)[C@@H]1O` (stereo partly shown) [Palatinose] the “Used Saccharide (Solubility at 37° C. (weight %))” value was “(40) weight %”. With `OC[C@@H](O)[C@@H](O[C@@H]1O[C@H](CO)[C@H](O)[C@H](O)[C@H]1O)[C@H](O)[C@@H](O)CO` [Lactitol] the “Used Saccharide (Solubility at 37° C. (weight %))” value was “(70) weight %”. With `O=C(CO)[C@@H](O)[C@H](O)[C@H](O)CO` [Fructose] the “Used Saccharide (Solubility at 37° C. (weight %))” value was “(84) weight %”. With Palatinit the “Used Saccharide (Solubility at 37° C. (weight %))” value was “(37) weight %”. With `OC[C@@H](O)[C@@H](O[C@H]1O[C@H](CO)[C@@H](O)[C@H](O)[C@H]1O)[C@H](O)[C@@H](O)CO` [Maltitol] the “Used Saccharide (Solubility at 37° C. (weight %))” value was “(63) weight %”. With `OC[C@H]1O[C@H](O[C@H]2O[C@H](CO)[C@@H](O)[C@H](O)[C@H]2O)[C@H](O)[C@@H](O)[C@@H]1O` [Trehalose] the “Used Saccharide (Solubility at 37° C. (weight %))” value was “(52) weight %”. For `OC[C@@H](O)[C@@H](O)CO` [Erythritol], the “Used Saccharide (Solubility at 37° C. (weight %))” value was “(44) weight %”. For `OC[C@H]1O[C@@](CO)(O[C@H]2O[C@H](CO)[C@@H](O)[C@H](O)[C@H]2O)[C@@H](O)[C@@H]1O` [Sucrose], the “Used Saccharide (Solubility at 37° C. (weight %))” value was “(68) weight %”.

Same assay, conditions: water, unit from the definition, the table prints none
With `OC[C@@H](O)[C@@H](O)[C@H](O)[C@H](O)CO` [Mannitol] the “Solubility in water at 37° C.” value was 23 % by weight. For `OC[C@@H](O)[C@@H](O)[C@H](O)[C@@H](O)CO` [Sorbitol], the “Solubility in water at 37° C.” value was 74 % by weight. For `OC[C@@H](O)[C@H](O)[C@@H](O)CO` [Xylitol], the “Solubility in water at 37° C.” value was 72 % by weight. For `OC[C@H]1O[C@H](OC[C@H]2OC(O)(CO)[C@@H](O)[C@@H]2O)[C@H](O)[C@@H](O)[C@@H]1O` (stereo partly shown) [Palatinose], the “Solubility in water at 37° C.” value was 40 % by weight. In the case of `OC[C@@H](O)[C@@H](O[C@@H]1O[C@H](CO)[C@H](O)[C@H](O)[C@H]1O)[C@H](O)[C@@H](O)CO` [Lactitol], the “Solubility in water at 37° C.” value is reported as 70 % by weight. In the case of `O=C(CO)[C@@H](O)[C@H](O)[C@H](O)CO` [Fructose], the “Solubility in water at 37° C.” value is reported as 84 % by weight. In the case of Palatinit, the “Solubility in water at 37° C.” value is reported as 37 % by weight. With `OC[C@@H](O)[C@@H](O[C@H]1O[C@H](CO)[C@@H](O)[C@H](O)[C@H]1O)[C@H](O)[C@@H](O)CO` [Maltitol] the “Solubility in water at 37° C.” value was 63 % by weight. In the case of `OC[C@H]1O[C@H](O[C@H]2O[C@H](CO)[C@@H](O)[C@H](O)[C@H]2O)[C@H](O)[C@@H](O)[C@@H]1O` [Trehalose], the “Solubility in water at 37° C.” value is reported as 52 % by weight. In the case of `OC[C@@H](O)[C@@H](O)CO` [Erythritol], the “Solubility in water at 37° C.” value is reported as 44 % by weight. For `OC[C@H]1O[C@@](CO)(O[C@H]2O[C@H](CO)[C@@H](O)[C@H](O)[C@H]2O)[C@@H](O)[C@@H]1O` [Sucrose], the “Solubility in water at 37° C.” value was 68 % by weight.
